Data published in patent US6337093B1 (priority 1998, dated 2002).

Legend:
tumor = assay: Combination with bleomycin: tumor growth and life span; details: in vivo
Description: As for interferons, interleucins and other known immunomoludatory materials, the efficacy of the pharmaceutical preparations of the present invention is restricted by the basic capacity of the immune system to recognize and attack cancer cells. However, the efficacy may be enhanced when the pharmaceutical preparations are combined with other antitumor drugs.

[1] = tested on: human and mouse lymphocytes; assay: Active principle: stimulation of lymphocytes' cytotoxic anticancer activity in vitro; assay type: cell-based; details: comparative analysis of minimum active concentrations

Molecule	Effect on tumor growth and life span (tumor)	Concentration to enhance cancer cell destruction relative to the effective concentration of the active principle [1]
bleomycin	much less effective	
NK-lysin (protein, UniProt P22749 23-145, looked up, Human cytolitic peptide which directly kills the target cells) Granulysin: RLSPEYYDLARAHLRDEEKSCPCLAQEGPQGDLLTKTQELGRDYRTCLTIVQKLKKMVDKPTQRSVSNAATRVCRTGRSRWRDVCRNFMRRYQSRVTQGLVAGETAQQICEDLRLCIPSTGPL		more than a million times
